Laboratory results as given in patent US20240254138A1, “TRICYCLIC PYRIMIDINES AS CYCLIN-DEPENDENT KINASE 7 (CDK7) INHIBITORS” (JANSSEN PHARMACEUTICA NV, priority 2021, published 2024).
Read-outs that look alike come from different tables or passages of the source.

Assays:
[1] = test system: RNA Polymerase II Serine 5 phosphorylation (Rpb1 CTD, downstream substrate of CDK7) in A549 cells; test: Imaging-based cellular RNA PolII Ser5 phosphorylation assay in A549 cells; type: cell-based, human; settings: wild-type CDK7, RNA PolII Ser5 phosphorylation, averaged over all measurements; for IC50: Homo sapiens, A549, A549 cells, read-out: CDK7_A549 Wild-type CDK7 (pIC50) (converted)
Procedure, shortened: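 IC50 derived by fitting % control (DMSO high, 10 μM reference low) against concentration, with Hill slope. Readout: high-content imaging of phospho-Ser5 Rpb1 CTD antibody staining in fixed, permeabilized A549 cells exposed to compound 3 h after 20 h culture in 1% FBS DMEM.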

[2] = test system: RNA Polymerase II Serine 5 phosphorylation in A549 cells overexpressing CDK7-mutant (C312S); test: Imaging-based cellular RNA PolII Ser5 phosphorylation assay in A549 cells overexpressing CDK7-mutant (C312S); type: cell-based, human; settings: RNA PolII Ser5 phosphorylation, averaged over all measurements; for IC50: Homo sapiens, A549, A549 cells overexpressing CDK7-mutant (C312S), read-out: CDK7_A549 mutant hCDK7(pIC50) (converted)
Procedure, shortened: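 Readout was automated imaging of anti-phospho-Ser5 Rpb1 CTD immunofluorescence, with IC50 fitted to % control versus concentration. Cells were A549 stably overexpressing non-covalently targetable CDK7 C312S alongside wild-type, exposed to compound 3 h at 37 °C. DMSO and 10 μM reference compound served as controls.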

[3] = target: CDK7/cyclinH/MAT1 trimeric complex (Homo sapiens, UniProt P50613); test: In vitro CDK7 assay, potency of irreversible covalent inhibitors (kinact/KI), coupled PK/LDH ADP readout at 340 nm
CDK7/cyclinH/MAT1 trimeric complex, sequence (P50613 whole entry): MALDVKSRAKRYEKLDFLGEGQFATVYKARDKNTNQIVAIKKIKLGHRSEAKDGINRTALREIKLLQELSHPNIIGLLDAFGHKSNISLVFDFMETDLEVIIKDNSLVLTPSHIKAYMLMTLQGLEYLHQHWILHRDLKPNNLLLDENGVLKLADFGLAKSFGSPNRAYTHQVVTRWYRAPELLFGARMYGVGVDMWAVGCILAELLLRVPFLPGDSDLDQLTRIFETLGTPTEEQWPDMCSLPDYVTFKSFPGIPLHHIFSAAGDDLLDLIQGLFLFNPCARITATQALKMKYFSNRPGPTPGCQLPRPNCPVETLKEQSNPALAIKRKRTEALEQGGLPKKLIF
CDK7/cyclinH/MAT1 trimeric complex, sequence (P51946 whole entry partner): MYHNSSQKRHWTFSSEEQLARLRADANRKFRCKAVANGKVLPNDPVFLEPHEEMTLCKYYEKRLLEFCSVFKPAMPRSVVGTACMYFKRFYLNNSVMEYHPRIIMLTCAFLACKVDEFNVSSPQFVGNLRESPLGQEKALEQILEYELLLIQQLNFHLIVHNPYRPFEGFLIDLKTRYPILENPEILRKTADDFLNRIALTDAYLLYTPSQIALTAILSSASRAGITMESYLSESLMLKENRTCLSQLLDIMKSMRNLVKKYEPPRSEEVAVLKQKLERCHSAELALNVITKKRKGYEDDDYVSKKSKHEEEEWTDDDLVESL
CDK7/cyclinH/MAT1 trimeric complex, sequence (P51948 whole entry partner): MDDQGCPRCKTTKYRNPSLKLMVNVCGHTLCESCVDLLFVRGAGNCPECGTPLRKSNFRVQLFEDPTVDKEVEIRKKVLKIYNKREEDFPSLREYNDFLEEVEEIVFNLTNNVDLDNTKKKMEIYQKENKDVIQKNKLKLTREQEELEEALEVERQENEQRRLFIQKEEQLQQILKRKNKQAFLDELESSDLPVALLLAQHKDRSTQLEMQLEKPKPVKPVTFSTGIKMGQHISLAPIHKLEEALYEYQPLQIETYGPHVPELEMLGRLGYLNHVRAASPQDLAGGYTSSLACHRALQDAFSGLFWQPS

[4] = read-out: CDK7 (20 nM enz.) (kinact/KI, M^−1*s^−1), 20 nM enzyme
[5] = CDK7 (20 nM enz.) (KI, μM), 20 nM enzyme
[6] = read-out: CDK7 (20 nM enz.) (kinact, s^−1), 20 nM enzyme
[7] = CDK7 (KI(μM)), […], 1 mM ATP, room temperature, averaged values over all measurements
[8] = read-out: CDK7 (kinact, s^−1), kinact = maximal rate of inactivation, 1 mM ATP, room temperature, averaged values over all measurements
[9] = read-out: CDK7 (kinact/KI, M^−1*s^−1), potency of irreversible covalent inhibitors, 1 mM ATP, room temperature, averaged values over all measurements

Row | SMILES | IC50 [1] [µM] | IC50 [2] [µM] | melting point [°C] | kinact/KI [3, 4] [M⁻¹ s⁻¹] | Ki [3, 5] [µM] | kinact [3, 6] [s⁻¹] | Ki [3, 7] [µM] | kinact [3, 8] [s⁻¹] | kinact/KI [3, 9] [M⁻¹ s⁻¹] | CDK7_A549 Wild-type CDK7 (pIC50) ([1]; A549 cells) | CDK7_A549 mutant hCDK7(pIC50) ([2]; A549 cells overexpressing CDK7-mutant (C312S)) | kinact/KI ([3]; read-out: CDK7 (20 nM enz.) (kobs/[I], M^−1*s^−1), 20 nM enzyme) [M⁻¹ s⁻¹] | CDK7 (20 nM enz.) (kinact, s^−1) ([3]; 20 nM enzyme) [s⁻¹]
1 | C=CC(=O)N1CC[C@H](N2CCC(c3ccc4c(c3)Nc3ncc(F)c(N5CCOCC5)c3CO4)CC2)C1 (single isomer, unassigned) [Compound 222] | 0.0977 | > 10 | 138 | 416 | 0.18 | 7.49e-05 | – | – | – | – | – | – | –
2 | C=CC(=O)N1CC[C@@H](N2CCC(c3ccc4c(c3)Nc3ncc(F)c(N5CCOCC5)c3CO4)CC2)C1 (single isomer, unassigned) [Compound 223] | 0.0417 | 7.59 | 106 | 480 | 0.127 | 6.11e-05 | – | – | – | – | – | – | –
3 | C=C(C(=O)N1CC(N2CCC(c3cc4c(c(C)n3)O[C@@H](C)c3c(N5CCOCC5)ccnc3N4)CC2)C1)n1cccn1 (single isomer, unassigned) [Compound 523] | 0.0977 | > 10 | 148 | 398 | 0.0496 | 1.97e-05 | – | – | – | – | – | – | –
4 | C=C(C(=O)N1CC(N2CCC(c3cc4c(c(C)n3)O[C@H](C)c3c(N5CCOCC5)ccnc3N4)CC2)C1)n1cccn1 (single isomer, unassigned) [Compound 526] | 0.0141 | > 2.51 | 131.3 | 340 | 0.0767 | 2.61e-05 | – | – | – | – | – | – | –
5 | C=CC(=O)Nc1ccc(C(=O)Nc2ccc3c(c2)Nc2nccc(C4CCOCC4)c2CO3)cc1 [Compound 1] | 0.132 | ~8.51 | 281.1 | 1270 | 0.0456 | 5.77e-05 | 0.107 | 0.0003 | 2030 | – | – | – | –
6 | C=CC(=O)N1CC(N2CCC(c3cc4c(cn3)OCc3c(N5CCOCC5)ccnc3N4)CC2)C1 [Compound 83] | – | – | 238.4 | – | – | – | – | – | – | 6.95 | <5 | 782 | –
7 | C=CC(=O)N1CC(N2CCC(c3cc4c(c(C)n3)OCc3c(-c5cnn(C)c5)ccnc3N4)CC2)C1 [Compound 164] | 0.055 | > 10 | 277.8 | 1010 | 0.0786 | – | – | – | – | – | – | – | 7.933e-05

The remaining lines, values ahead:

Row | IC50 [1] [µM] | IC50 [2] [µM] | melting point [°C] | kinact/KI [3, 4] [M⁻¹ s⁻¹] | Ki [3, 5] [µM] | kinact [3, 6] [s⁻¹] | Ki [3, 7] [µM] | kinact [3, 8] [s⁻¹] | kinact/KI [3, 9] [M⁻¹ s⁻¹] | CDK7_A549 Wild-type CDK7 (pIC50) ([1]; A549 cells) | CDK7_A549 mutant hCDK7(pIC50) ([2]; A549 cells overexpressing CDK7-mutant (C312S)) | kinact/KI ([3]; read-out: CDK7 (20 nM enz.) (kobs/[I], M^−1*s^−1), 20 nM enzyme) [M⁻¹ s⁻¹] | CDK7 (20 nM enz.) (kinact, s^−1) ([3]; 20 nM enzyme) [s⁻¹] | SMILES
8 | 8.51 | > 10 | > 300 | 0.84 | – | – | – | – | – | – | – | – | – | C=CC(=O)N1CC(N2CC[C@H](c3cc4c(c(C)n3)O[C@@H](C)c3c(N5CCOCC5)ccnc3N4)C2)C1 (single isomer, unassigned) [Compound 218]
9 | 0.0295 | > 10 | 225 | 1150 | 0.0323 | 3.71e-05 | – | – | – | – | – | – | – | C=CC(=O)N1CC(N2CCC(c3cc4c(c(C)n3)O[C@H](C)c3c(N5CCOCC5)ccnc3N4)CC2)C1 (single isomer, unassigned) [Compound 262]
10 | 0.0513 | > 3.98 | > 300 | 308 | 0.168 | 5.18e-05 | – | – | – | – | – | – | – | C=CC(=O)N1CC(N2CCC(c3cc4c(cn3)O[C@H](C)c3c(N5CCOCC5)ccnc3N4)CC2)C1 (single isomer, unassigned) [Compound 263]
11 | 1.07 | > 10 | 236.7 | 44.2 | 0.934 | 4.13e-05 | – | – | – | – | – | – | – | C#Cc1cc(C2CCN(C3CN(C(=O)C=C)C3)CC2)cc2c1O[C@H](C)c1c(N3CCOCC3)ccnc1N2 (single isomer, unassigned) [Compound 268]
12 | 0.209 | > 10 | 220.7 | 29.2 | 4.52 | 0.000132 | – | – | – | – | – | – | – | C=CC(=O)N1CC(N2CCC(c3cc(C#N)c4c(c3)Nc3nccc(N5CCOCC5)c3[C@H](C)O4)CC2)C1 (single isomer, unassigned) [Compound 353]
13 | 0.692 | > 10 | 117.9 | – | – | – | 0.123 | 0.000133 | 1090 | – | – | – | – | C=CC(=O)N1CC(N2CCC(c3ccc4c(c3)OCc3c(N5CCOCC5)ccnc3N4)CC2)C1 [Compound 35]
